In BindingDB's records for doi:10.1021/jm020270n (Dainippon Pharmaceutical, 2003) one finds Ki data, which are given here for one molecule.

The test has as its target D(2) dopamine receptor (Rattus norvegicus, UniProt P61169). The test can be described thus: Affinity towards Dopamine receptor D2 in rat striatum using [3H]spiperone as radioligand.

D(2) dopamine receptor, sequence (P61169 whole entry): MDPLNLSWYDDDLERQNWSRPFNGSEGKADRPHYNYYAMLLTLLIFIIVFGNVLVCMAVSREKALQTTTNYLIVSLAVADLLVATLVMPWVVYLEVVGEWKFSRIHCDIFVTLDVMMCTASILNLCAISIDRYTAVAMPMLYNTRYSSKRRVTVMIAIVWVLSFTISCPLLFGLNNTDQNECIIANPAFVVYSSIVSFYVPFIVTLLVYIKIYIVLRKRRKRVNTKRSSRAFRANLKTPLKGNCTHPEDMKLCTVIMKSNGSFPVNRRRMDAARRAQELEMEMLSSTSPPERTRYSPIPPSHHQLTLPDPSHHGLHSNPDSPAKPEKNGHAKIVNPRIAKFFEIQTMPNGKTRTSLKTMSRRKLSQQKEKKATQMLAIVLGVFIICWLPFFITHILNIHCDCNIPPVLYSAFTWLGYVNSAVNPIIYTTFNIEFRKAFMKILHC

Take `COc1cc(N)c(Cl)cc1C(=O)NC1CC2CCC(C1)N2C` (stereo unspecified) [4-amino-5-chloro-2-methoxy-N-(8-methyl-8-azabicyclo[3.2.1]octan-3-yl)benzamide]: the Ki was above 1000 nM.

As usually defined, the Ki is the equilibrium dissociation constant of an inhibitor or competing ligand from its target. Low values mean a stronger hold on the target, high ones a looser hold on the target.
